How the values were obtained:
Stability in plasma = format: in vitro ADME
Procedure: Plasma samples (200 μL) were mixed 1:4 with acetone (800 μL) and vortexed for at least 30 seconds. Following centrifugation, the supernatant was transferred into a clean tube and was dried under nitrogen. A 50 μL solution of 50% methanol in 200 mM HCl was used to reconstitute the extraction residue, and 40 μL was injected into the HPLC.
The whole blood samples were placed in a 37° C. water bath, while plasma samples were stored at −20° C. At a predetermined time, an aliquot (100 μl) of spiked whole blood or plasma was extracted by adding 400 μl of acetone to induce precipitation of proteins, as described above.

[1] = Stability in murine liver homogenates; format: in vitro ADME, Balb/c mice; settings: 100 μM; Balb/c mouse liver homogenate
Procedure: At a predetermined time, an aliquot (100 μl) of spiked liver homogenate was extracted by adding 400 μl of acetone to induce precipitation of proteins, as described above.

[2] = Stability in simulated intestinal fluid; format: in vitro ADME; settings: 100 μM, 37° C.
Procedure: The spiked fluids were then placed in a 37° C. water bath. At a predetermined time, 100 μI aliquots of the spiked gastric or intestinal fluid were extracted by adding 400 μl of acetone as discussed above.

[3] = Hydrolysis rate in alkali conditions; format: physicochemical
Procedure: Statistical analysis. Each drug was tested at 6-7 different concentrations ranging from 0.0001 μM to 100 μM. Each assay was set up in triplicate wells and repeated 1-3 times. An IC50 value was calculated from each set of triplicate wells using nonlinear regression modeling of the exponential form of the linearized equation (Statview, SAS Institute, Inc., Cary, N.C.). Hydrolysis rates were determined by fitting single exponential decay equations to the disappearance of the compound in alkali conditions (all R^2 values greater than 0.85). The IC50 values obtained were correlated to the log transformed hydrolysis rate constants by fitting a linear model (JMP Software, SAS Institute Inc., Cary, N.C.). P-values less than 0.05 were deemed significant.

skin fibroblasts = experiment: Cytotoxicity in skin fibroblasts (plaque assay); format: cell-based; settings: ADV plaque formation assay
Procedure: Plaque formation assays. Plaque assays were used to examine the activity of the compounds against non-HIV viruses. The skin fibroblast cell line SF (ATCC CRL-2097) was used as a target for AD169, Adenovirus Type 5. […] cell line (ATCC CCL-81) was used as a target for HSV HF and G. The HEP-2 cell line (ATCC CCL-23) was used as a target for the RSV strain Long. These cell lines were cultured at 1×10^5 cells/well in 24-well (all but ECHO 30-infected SF) or 6-well (ECHO 30-infected SF) tissue culture plates with 0.9% methylcellulose or 0.4% SeaPlaque agarose semisolid support. Minimum Essential Medium (MEM) with Earle's salts (Gibco), L-glutamine, non-essential amino acids, 2% heat-inactivated fetal bovine serum, 1% penicillin/streptomycin, and 0.05% gentamicin served as the culture medium. The incubation times were 3 days for HF, G, ECHO 30, and Long; and 7 days for AD169 and Adenovirus Type 5. […] Percent inhibition of plaque formation was calculated by comparing the plaque numbers from the test substance-treated infected cells with the plaque numbers from untreated infected cells (i.e., virus controls). The IC50 values were determined using the Statview statistics program (SAS Institute, Inc., Cary, N.C.).

[4] = mice, cited from earlier work

## COC(=O)C(C)NP(=O)(OC[C@@H]1C=C[C@H](n2cc(C)c(=O)[nH]c2=O)O1)Oc1ccc(Br)cc1 (stereo partly shown) [Compound 113, 5′-[4-Bromophenyl methoxylaninylphosphate]-2′, 3′-didehydro-3′-deoxy thymidine]
Stability in plasma; 250 μM
  time to complete decomposition in plasma: ≤ 30 min
Stability in plasma; 250 μM, after 5 minutes
  decomposed following incubation with plasma: over 95%
Stability in plasma; spiked plasma, 250 μM compound 113, 100 μM Ala-d4T-MP (followed for 1 day)
  stability in plasma (in words): very unstable
[1]
  time to decomposition in liver homogenate: ≤ 30 min
[2]
  stability in intestinal fluid (in words): not stable
[2]; within 2 hours
  decomposed in intestinal fluid: approximately 94%
[3]
  Hydrolysis Rate: 0.0210 min⁻¹
Skin fibroblasts
  cytotoxicity (in words): without any evidence of cytotoxicity even at 100 μM
[4]; intraperitoneally or orally for up to 8 consecutive weeks, cumulative dose levels as high as 6.4 g/kg
  toxicity on daily administration: not associated with any detectable toxicity
[4]; single intraperitoneal or oral bolus dose levels as high as 500 mg/kg
  acute or subacute toxicity: very well tolerated without any detectable acute or subacute toxicity

Reference: patent publication US20030236218A1, “Aryl phosphate derivatives of d4T with selective activity against adenovirus and HIV” (priority 2002, published 2003)
